The results in this text go back to ChEMBL document CHEMBL1201862, “PubChem BioAssay data set” (2004).

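All cell lines were grown in 96-well plates and treated with compound for 48 hours. The concentration for 50% growth inhibition is given as GI50.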 Activity calls are given as the source filed them. Cut-off read from the data, not from the text of the source: active = GI50 up to about 1.1 µM and inactive = higher.

Some test systems named below: K562; SR; M19-MEL; HCT-116; CCRF-CEM; UACC-257; NCI-H460; SNB-75; HCT-15; 786-0; UACC-62; SN12C; MOLT-4; HT-29; OVCAR-5; IGROV-1; KM12; T47D; Hs-578T; PC-3.
Common to all, as to test: growth of human tumour cells (NCI), 48 h

As for `CCN1C(=O)C(N=[N+]=[N-])(c2ccccc2)C(=O)c2ccccc21` (stereo not given), the GI50 in the experiment with K562 is 39 µM (inactive); with SR, 36.3 µM (inactive); with M19-MEL it was 43.1 µM (inactive); in the experiment on HCT-116, 61.8 µM (inactive); in the experiment with CCRF-CEM, 55.1 µM (inactive); in the experiment with UACC-257 it was 46.6 µM (inactive). In addition, the GI50 with NCI-H460 was 94.8 µM (inactive); with SNB-75, 83 µM (inactive); with HCT-15, 59.2 µM; in the experiment with 786-0 it was > 100 µM (inactive); in the experiment with UACC-62 it was 62.8 µM (inactive); with SN12C, > 100 µM (inactive). Further, the GI50 is 43.1 µM (inactive) with MOLT-4; > 100 µM (inactive) in the experiment with HT-29; > 100 µM (inactive) in the experiment with OVCAR-5; > 100 µM (inactive) in the experiment with IGROV-1; > 100 µM (inactive) with KM12.
For `O=c1c(Cl)c(Cl)cnn1CCCl`, the GI50 in the experiment on K562 is 2.06 µM (inactive); in the experiment with M19-MEL, 2.67 µM (inactive); with HCT-116, 5.48 µM (inactive); with CCRF-CEM, 1.85 µM (inactive); with UACC-257, 4.46 µM (inactive); in the experiment on NCI-H460, 8.13 µM (inactive). In addition, the GI50 in the experiment on SNB-75 was 11.1 µM (inactive); in the experiment on T47D, 3.34 µM (inactive); with HCT-15, 2.64 µM; in the experiment on 786-0 it was 12.2 µM (inactive); in the experiment with UACC-62, 3.4 µM (inactive); with SN12C it was 12.9 µM (inactive). In addition, the GI50 was 2.54 µM (inactive) in the experiment with MOLT-4; 2.81 µM (inactive) in the experiment on HT-29; 16.5 µM (inactive) in the experiment with OVCAR-5; 1.95 µM (inactive) in the experiment with IGROV-1; 3.25 µM (inactive) in the experiment with Hs-578T; 14.4 µM (inactive) with KM12.
Consider `CC(=O)/C(=N\O)C(=O)NCCc1ccccc1`, for which the GI50 is 68.7 µM (inactive) in the experiment with K562; > 100 µM (inactive) in the experiment with SR; > 100 µM (inactive) in the experiment with M19-MEL; 46 µM (inactive) with HCT-116; 76.4 µM (inactive) in the experiment with CCRF-CEM; 57.7 µM (inactive) in the experiment on UACC-257. Besides, the GI50 was 41.6 µM (inactive) in the experiment with NCI-H460; > 100 µM (inactive) in the experiment on SNB-75; 41.1 µM with HCT-15; 68.2 µM (inactive) in the experiment with 786-0; > 100 µM (inactive) with UACC-62; > 100 µM (inactive) in the experiment on SN12C. Besides, the GI50 was > 100 µM (inactive) with MOLT-4; 83.2 µM (inactive) with HT-29; > 100 µM (inactive) in the experiment with OVCAR-5; > 100 µM (inactive) in the experiment on IGROV-1; 58.3 µM (inactive) in the experiment on KM12.
`Cc1cc(Br)cc(C)c1NC(=O)C(=O)C(C(=O)c1ccc2ccccc2c1)C1OC(=O)c2ccccc21` (stereo not given): the GI50 in the experiment on K562 was 5.93 µM (inactive); in the experiment with SR, 2.47 µM (inactive); in the experiment on M19-MEL, 12.4 µM (inactive); in the experiment with HCT-116, 8.91 µM (inactive); in the experiment with CCRF-CEM it was 3.94 µM (inactive); in the experiment on UACC-257, 10.7 µM (inactive). Further, the GI50 in the experiment with NCI-H460 was 4.66 µM (inactive); with SNB-75, 14.3 µM (inactive); with HCT-15, 17.3 µM; in the experiment with 786-0 it was 6.03 µM (inactive); in the experiment on UACC-62 it was 12.9 µM (inactive); in the experiment with SN12C, 19.7 µM (inactive). For the same compound, the GI50 in the experiment on MOLT-4 was 2.31 µM (inactive); with HT-29 it was 18.2 µM (inactive); with OVCAR-5, 7.14 µM (inactive); with IGROV-1 it was 18.2 µM (inactive); in the experiment with KM12 it was 15.5 µM (inactive).
As to `CC(C)(CN1C(=O)C(Cl)=C(Cl)C1=O)CN1C(=O)C(Cl)=C(Cl)C1=O`, the GI50 in the experiment on K562 is 1.64 µM (inactive); with SR it was 2.58 µM (inactive); with M19-MEL, 7.66 µM (inactive); in the experiment on HCT-116, 11.5 µM (inactive); in the experiment with CCRF-CEM it was 0.264 µM (active); in the experiment on UACC-257, 13.9 µM (inactive). In addition, the GI50 was 35 µM (inactive) in the experiment on NCI-H460; 22.2 µM (inactive) in the experiment with SNB-75; 8.63 µM in the experiment with HCT-15; 11.7 µM (inactive) with 786-0; 14.1 µM (inactive) with UACC-62; 11.7 µM (inactive) in the experiment on SN12C. For the same compound, the GI50 in the experiment on MOLT-4 is 0.966 µM (active); with HT-29, 13.2 µM (inactive); in the experiment on OVCAR-5, 19.8 µM (inactive); in the experiment on IGROV-1, 18.9 µM (inactive); with KM12, 24.2 µM (inactive).
For `C[N+](C)(Cc1ccc(NC(=O)CCCC(=O)ON2C(=O)CCC2=O)cc1)c1ccccc1`, the GI50 in the experiment with K562, in the experiment on SR, with M19-MEL, in the experiment with HCT-116, in the experiment with CCRF-CEM and with UACC-257 was < 0.01 µM (active) each time. Besides, the GI50 with NCI-H460 is > 1 µM (active); with SNB-75, < 0.01 µM (active); with HCT-15 it was over 1 µM; in the experiment with 786-0, < 0.01 µM (active); in the experiment on UACC-62, < 0.01 µM (active); in the experiment with SN12C, < 0.01 µM (active). Also, the GI50 with MOLT-4, in the experiment with HT-29, in the experiment on OVCAR-5, in the experiment with IGROV-1 and in the experiment with KM12 was < 0.01 µM (active) each time.
With `CCOP(=O)(C/C(=N/NC(C)(C)C)C(=O)Nc1nc2ccc(C)cc2s1)OCC`, the GI50 with K562, in the experiment on SR, in the experiment with M19-MEL, in the experiment with HCT-116, in the experiment on CCRF-CEM and with UACC-257 was > 100 µM (inactive) each time. In addition, the GI50 in the experiment on NCI-H460 is > 100 µM (inactive); in the experiment with SNB-75, > 100 µM (inactive); with HCT-15, over 100 µM; with 786-0, > 100 µM (inactive); with UACC-62, > 100 µM (inactive); in the experiment with SN12C it was > 100 µM (inactive). Further, the GI50 with MOLT-4, with HT-29, in the experiment with OVCAR-5, in the experiment on IGROV-1 and with KM12 was > 100 µM (inactive) each time.
For the compound `Cc1cc(NC(=O)NC(=O)c2ccccc2NC(=O)CN(C)C)ccc1Oc1ncc(Br)cn1`, the GI50 in the experiment with K562 is 2 µM (inactive); with SR, 3.24 µM (inactive); with M19-MEL, 36.8 µM (inactive); in the experiment with HCT-116, 1.85 µM (inactive); in the experiment with CCRF-CEM it was 2.26 µM (inactive); in the experiment on UACC-257 it was 57.5 µM (inactive). Moreover, the GI50 with NCI-H460 was 0.78 µM (active); in the experiment with SNB-75, 1.89 µM (inactive); in the experiment with T47D, > 100 µM (inactive); with HCT-15, 3.18 µM; in the experiment on 786-0, 3.52 µM (inactive); in the experiment with UACC-62, 2.21 µM (inactive). Also, the GI50 was 17.3 µM (inactive) in the experiment with SN12C; 4.95 µM (inactive) in the experiment on MOLT-4; 1.61 µM (inactive) with HT-29; 1.08 µM (active) in the experiment on PC-3; 15.1 µM (inactive) in the experiment on OVCAR-5; 6.27 µM (inactive) in the experiment on IGROV-1. Also, the GI50 was 1.6 µM (inactive) with Hs-578T and 1.36 µM (inactive) in the experiment on KM12.
